Test results from patent publication US20240025863A1, “SOS1 PROTEIN DEGRADERS, PHARMACEUTICAL COMPOSITIONS THEREOF, AND THEIR THERAPEUTIC APPLICATIONS” (BioTheryX, Inc., priority 2020, published 2024).

Assays:
Format in all cases: cell-based
Lovo cells (G13D) = experiment: Cell viability assay (CellTiter-Glo), Lovo cells; settings: Homo sapiens, 72 h; Lovo cells, 3 days incubation, CellTiter-Glo luminescence; read-out: Inhibition of Cancerous Cells IC50 Lovo (G13D)
Procedure: (§1) H358, H23, SW48, and AsPC-1 cells were cultured in RPMI 1640 media supplemented with 10% fetal bovine serum, streptomycin, and penicillin. Lovo and SW480 cells were cultured in DMEM media supplemented with 10% fetal bovine serum, streptomycin, and penicillin. The cell lines were plated in their respective medium supplemented with 2.5% fetal bovine serum, streptomycin, and penicillin. All cell lines were plated in white walled 96-well plates at 2,000 cells/well or 384-well plates at 500 cells/well, except Lovo, which were plated at 4,000 or 1,000 cells/well, respectively. The cells were incubated in DMSO (control) or a compound for 3 days at 37° C. under 5% CO2. A CELLTITER-GLO® reagent (100 μL) was then added to each well. After a 10 min incubation with shaking, luminescence was measured using an ENVISION® multimode plate reader.

SW480 cells (G12V) = experiment: Cell viability assay (CellTiter-Glo), SW480 cells; settings: Homo sapiens, 72 h; SW480 cells, 3 days incubation, CellTiter-Glo luminescence; read-out: Inhibition of Cancerous Cells IC50 SW480 (G12V)
Procedure: as §1

SW48 cells (wt) = experiment: Cell viability assay (CellTiter-Glo), SW48 cells; settings: Homo sapiens, 72 h; SW48 cells, 3 days incubation, CellTiter-Glo luminescence; read-out: Inhibition of Cancerous Cells IC50 SW48 (wt)
Procedure: as §1

H358 cells (G12C) = experiment: Cell viability assay (CellTiter-Glo), H358 cells; settings: Homo sapiens, NCI-H358, 72 h; H358 cells, 3 days incubation, CellTiter-Glo luminescence; read-out: Inhibition of Cancerous Cells IC50 H358 (G12C)
Procedure: as §1

Structure (SMILES): CNCc1ccccc1-c1csc([C@@H](C)Nc2nc(C)nc3cc(OCCCCCCCN4CCC(c5cc(F)cc6c5CN(C5CCC(=O)N(C)C5=O)C6=O)CC4)c(OC)cc23)c1 (stereo partly drawn) [Compound A52, 3-(6-Fluoro-4-(1-(7-((6-methoxy-2-methyl-4-(((R)-1-(4-(2-((methylamino)-methyl)phenyl)thiophen-2-yl)ethyl)amino)quinazolin-7-yl)oxy)heptyl)piperidin-4-yl)-1-oxoisoindolin-2-yl)-1-methylpiperidine-2,6-dione]
- IC50 (Lovo cells (G13D)): 42 nM
- IC50 (SW480 cells (G12V)): 170 nM
- IC50 (SW48 cells (wt)): 170 nM
- IC50 (H358 cells (G12C)): 210 nM

Structure (SMILES): COc1cc2c(N[C@H](C)c3cccc(Br)c3)nc(C)nc2cc1OCCCCCCCCC(=O)N1CCC(CN2CCN(c3cc4c(cc3F)C(=O)N(C3CCC(=O)NC3=O)C4=O)CC2)CC1 (stereo partly drawn) [Compound A34, 5-(4-((1-(9-((4-(((R)-1-(3-Bromophenyl)ethyl)amino)-6-methoxy-2-methyl-quinazolin-7-yl)oxy)nonanoyl)piperidin-4-yl)methyl)piperazin-1-yl)-2-(2,6-dioxopiperidin-3-yl)-6-fluoroisoindoline-1,3-dione]
- IC50 (Lovo cells (G13D)): 300 nM
- IC50 (SW480 cells (G12V)): 640 nM
- IC50 (SW48 cells (wt)): 3400 nM
- IC50 (H358 cells (G12C)): > 10000 nM

Structure (SMILES): COc1ccc(C2=N[C@@H](c3ccc(Cl)cc3)[C@@H](c3ccc(Cl)cc3)N2C(=O)N2CCN(CC(=O)NCCCCCCCCOc3cc4nc(C)nc(N[C@H](C)c5cccc(Br)c5)c4cc3OC)C(=O)C2)c(OC(C)C)c1 [Compound C2, 2-(4-((4S,5R)-4,5-bis(4-chlorophenyl)-2-(2-isopropoxy-4-methoxyphenyl)-4,5-dihydro-1H-imidazole-1-carbonyl)-2-oxopiperazin-1-yl)-N-(8-((4-(((R)-1-(3-bromophenyl)-ethyl)amino)-6-methoxy-2-methylquinazolin-7-yl)oxy)octyl)acetamide]
- IC50 (Lovo cells (G13D)): > 10000 nM
- IC50 (SW480 cells (G12V)): > 10000 nM
- IC50 (SW48 cells (wt)): > 10000 nM
- IC50 (H358 cells (G12C)): > 10000 nM

Structure (SMILES): COc1cc2c(N[C@H](C)c3cccc(Br)c3)nc(C)nc2cc1OCCCCCCCCN1CCC(c2cc(F)cc3c2CN(C2CCC(=O)NC2=O)C3=O)CC1 (stereo partly drawn) [Compound A58, 3-(4-(1-(8-((4-(((R)-1-(3-Bromophenyl)ethyl)amino)-6-methoxy-2-methyl-quinazolin-7-yl)oxy)octyl)piperidin-4-yl)-6-fluoro-1-oxoisoindolin-2-yl)piperidine-2,6-dione]
- IC50 (Lovo cells (G13D)): 300 nM
- IC50 (SW480 cells (G12V)): 360 nM
- IC50 (SW48 cells (wt)): 420 nM
- IC50 (H358 cells (G12C)): 1200 nM

Structure (SMILES): COc1cc2c(N[C@H](C)c3cccc(Br)c3)nc(C)nc2cc1OCCCCCCCCCC(=O)NCc1scc2c1CN(C1CCC(=O)NC1=O)C2=O (stereo partly drawn) [Compound A39, 10-((4-(((R)-1-(3-Bromophenyl)ethyl)amino)-6-methoxy-2-methylquinazolin-7-yl)oxy)-N-((5-(2,6-dioxopiperidin-3-yl)-4-oxo-5,6-dihydro-4H-thieno[3,4-c]pyrrol-1-yl)-methyl)decanamide]
- IC50 (Lovo cells (G13D)): 790 nM
- IC50 (SW480 cells (G12V)): 2600 nM
- IC50 (SW48 cells (wt)): 210 nM
- IC50 (H358 cells (G12C)): 680 nM

Structure (SMILES): COc1cc2c(N[C@H](C)c3cccc(Br)c3)nc(C)nc2cc1OCCCCCCCCN1CCC(c2cc3c(cc2F)C(=O)N(C2CCC(=O)NC2=O)C3)CC1 (stereo partly drawn) [Compound A50, 3-(5-(1-(8-((4-(((R)-1-(3-Bromophenyl)ethyl)amino)-6-methoxy-2-methyl-quinazolin-7-yl)oxy)octyl)piperidin-4-yl)-6-fluoro-1-oxoisoindolin-2-yl)piperidine-2,6-dione]
- IC50 (Lovo cells (G13D)): 430 nM
- IC50 (SW480 cells (G12V)): 470 nM
- IC50 (SW48 cells (wt)): 790 nM
- IC50 (H358 cells (G12C)): 960 nM

Structure (SMILES): COc1cc2c(N[C@H](C)c3cccc(Br)c3)nc(C)nc2cc1OCCCCN1CCN(C(=O)CNc2cc(F)cc3c2CN(C2CCC(=O)NC2=O)C3=O)CC1 (stereo partly drawn) [Compound A57, 3-(4-((2-(4-(4-((4-(((R)-1-(3-Bromophenyl)ethyl)amino)-6-methoxy-2-methyl-quinazolin-7-yl)oxy)butyl)piperazin-1-yl)-2-oxoethyl)amino)-6-fluoro-1-oxoisoindolin-2-yl)piperidine-2,6-dione]
- IC50 (Lovo cells (G13D)): 900 nM
- IC50 (SW480 cells (G12V)): 5200 nM
- IC50 (SW48 cells (wt)): 2900 nM
- IC50 (H358 cells (G12C)): 3300 nM

Structure (SMILES): CNCc1ccccc1-c1csc([C@@H](C)Nc2nc(C)nc3c(CCCCCCCN4CCC(c5cc(F)cc6c5CN(C5CCC(=O)NC5=O)C6=O)CC4)c(OC)c(OC)cc23)c1 (stereo partly drawn) [Compound A54, 3-(4-(1-(7-(6,7-Dimethoxy-2-methyl-4-(((R)-1-(4-(2-((methylamino)methyl)-phenyl)thiophen-2-yl)ethyl)amino)quinazolin-8-yl)heptyl)piperidin-4-yl)-6-fluoro-1-oxoisoindolin-2-yl)piperidine-2,6-dione]
- IC50 (Lovo cells (G13D)): 130 nM
- IC50 (SW480 cells (G12V)): 240 nM
- IC50 (SW48 cells (wt)): 200 nM
- IC50 (H358 cells (G12C)): 360 nM

Structure (SMILES): CNCc1ccccc1-c1csc([C@H](C)Nc2nc(C)nc3cc(OCCCCCCCN4CCC(c5cc6c(cc5F)C(=O)N(C5CCC(=O)NC5=O)C6)CC4)c(OC)cc23)c1 (stereo partly drawn) [Compound A26, 3-(6-Fluoro-5-(1-(7-((6-methoxy-2-methyl-4-(((S)-1-(4-(2-((methylamino)-methyl)phenyl)thiophen-2-yl)ethyl)amino)quinazolin-7-yl)oxy)heptyl)piperidin-4-yl)-1-oxoisoindolin-2-yl)piperidine-2,6-dione]
- IC50 (Lovo cells (G13D)): 360 nM
- IC50 (SW480 cells (G12V)): 400 nM
- IC50 (SW48 cells (wt)): 420 nM
- IC50 (H358 cells (G12C)): 570 nM

Structure (SMILES): COc1cc2c(N[C@H](C)c3cccc(Br)c3)nc(C)nc2cc1OCCCCCCCCCCN1CCC(c2cc(F)cc3c2CN(C2CCC(=O)NC2=O)C3=O)CC1 (stereo partly drawn) [Compound A51, 3-(4-(1-(10-((4-(((R)-1-(3-Bromophenyl)ethyl)amino)-6-methoxy-2-methyl-quinazolin-7-yl)oxy)decyl)piperidin-4-yl)-6-fluoro-1-oxoisoindolin-2-yl)piperidine-2,6-dione]
- IC50 (Lovo cells (G13D)): 160 nM
- IC50 (SW480 cells (G12V)): 640 nM
- IC50 (SW48 cells (wt)): 290 nM
- IC50 (H358 cells (G12C)): 390 nM

Structure (SMILES): COc1cc2c(N[C@H](C)c3cccc(Br)c3)nc(C)nc2cc1OCCCCCCCCCCC(=O)N[C@H](C(=O)N1C[C@H](O)C[C@H]1C(=O)NCc1ccc(-c2scnc2C)cc1)C(C)(C)C [Compound D3, (2S,4R)-1-((S)-2-(11-((4-(((R)-1-(3-Bromophenyl)ethyl)amino)-6-methoxy-2-methylquinazolin-7-yl)oxy)undecanamido)-3,3-dimethylbutanoyl)-4-hydroxy-N-(4-(4-methyl-thiazol-5-yl)benzyl)pyrrolidine-2-carboxamide]
- IC50 (Lovo cells (G13D)): > 10000 nM
- IC50 (SW480 cells (G12V)): > 10000 nM
- IC50 (SW48 cells (wt)): > 10000 nM
- IC50 (H358 cells (G12C)): > 10000 nM

Structure (SMILES): COc1cc2c(N[C@H](C)c3cccc(Br)c3)nc(C)nc2cc1OCCCCCCCCCCCCCCCC(=O)NCc1scc2c1CN(C1CCC(=O)NC1=O)C2=O (stereo partly drawn) [Compound A49, 16-((4-(((R)-1-(3-Bromophenyl)ethyl)amino)-6-methoxy-2-methylquinazolin-7-yl)oxy)-N-((5-(2,6-dioxopiperidin-3-yl)-4-oxo-5,6-dihydro-4H-thieno[3,4-c]pyrrol-1-yl)methyl)-hexadecanamide]
- IC50 (Lovo cells (G13D)): 420 nM
- IC50 (SW480 cells (G12V)): 2800 nM
- IC50 (SW48 cells (wt)): 670 nM
- IC50 (H358 cells (G12C)): > 10000 nM

Structure (SMILES): COc1cc2c(N[C@H](C)c3cccc(Br)c3)nc(C)nc2cc1OCCCCCCCC(=O)NCc1cccc2c1CN(C1CCC(=O)NC1=O)C2=O (stereo partly drawn) [Compound A7, 8-((4-(((R)-1-(3-Bromophenyl)ethyl)amino)-6-methoxy-2-methylquinazolin-7-yl)oxy)-N-((2-(2,6-dioxopiperidin-3-yl)-1-oxoisoindolin-4-yl)methyl)octanamide]
- IC50 (Lovo cells (G13D)): 3500 nM
- IC50 (SW480 cells (G12V)): 6400 nM
- IC50 (SW48 cells (wt)): 5000 nM
- IC50 (H358 cells (G12C)): 5400 nM

Structure (SMILES): COc1cc2c(N[C@H](C)c3cccc(Br)c3)nc(C)nc2cc1OCCCCCCNC(=O)[C@H](CC(C)C)NC(=O)[C@@H](O)[C@H](N)Cc1ccccc1 [Compound B6, (S)-2-((2S,3R)-3-amino-2-hydroxy-4-phenylbutanamido)-N-(6-((4-(((R)-1-(3-bromophenyl)ethyl)amino)-6-methoxy-2-methylquinazolin-7-yl)oxy)hexyl)-4-methylpentanamide]
- IC50 (Lovo cells (G13D)): 1000 nM
- IC50 (SW480 cells (G12V)): 660 nM
- IC50 (SW48 cells (wt)): 680 nM
- IC50 (H358 cells (G12C)): 1200 nM

Structure (SMILES): COc1cc2c(N[C@H](C)c3cccc(Br)c3)nc(C)nc2cc1OCCCCCN1CCN(C(=O)COc2cc3c(cc2F)C(=O)N(C2CCC(=O)NC2=O)C3)CC1 (stereo partly drawn) [Compound A31, 3-(5-(2-(4-(5-((4-(((R)-1-(3-Bromophenyl)ethyl)amino)-6-methoxy-2-methyl-quinazolin-7-yl)oxy)pentyl)piperazin-1-yl)-2-oxoethoxy)-6-fluoro-1-oxoisoindolin-2-yl)-piperidine-2,6-dione]
- IC50 (Lovo cells (G13D)): 230 nM
- IC50 (SW480 cells (G12V)): 4900 nM
- IC50 (SW48 cells (wt)): 510 nM
- IC50 (H358 cells (G12C)): 4500 nM

Structure (SMILES): COc1cc2c(N[C@H](C)c3cccc(Br)c3)nc(C)nc2cc1OCCCCCCCCCCNC(=O)[C@H](CC(C)C)NC(=O)[C@@H](O)[C@H](N)Cc1ccccc1 [Compound B8, (S)-2-((2S,3R)-3-Amino-2-hydroxy-4-phenylbutanamido)-N-(10-((4-(((R)-1-(3-bromophenyl)ethyl)amino)-6-methoxy-2-methylquinazolin-7-yl)oxy)decyl)-4-methylpentanamide]
- IC50 (Lovo cells (G13D)): 390 nM
- IC50 (SW480 cells (G12V)): 550 nM
- IC50 (SW48 cells (wt)): 1000 nM
- IC50 (H358 cells (G12C)): 1200 nM
